In PubChem BioAssay (NCI):
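Assay format: 96-well plates, 48-hour exposure. At the GI50, growth is halved. TGI: total growth inhibition.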

Legend:
Assay in all cases: growth of human tumour cells (NCI), 48 h
[1] = tested on: 786-0 renal
[2] = tested on: A498 renal
[3] = tested on: A549 NSCLC
[4] = tested on: ACHN renal
[5] = tested on: BT-549 breast
[6] = tested on: CAKI-1 renal
[7] = tested on: CCRF-CEM leukemia
[8] = tested on: COLO 205 colon
[9] = tested on: DU-145 prostate
[10] = tested on: EKVX NSCLC
[11] = tested on: HCC-2998 colon
[12] = tested on: HCT-116 colon
[13] = tested on: HCT-15 colon
[14] = tested on: HL-60(TB) leukemia
[15] = tested on: HOP-62 NSCLC
[16] = tested on: HOP-92 NSCLC
[17] = tested on: HS 578T breast
[18] = tested on: HT29 colon
[19] = tested on: IGROV1 ovarian
[20] = tested on: K-562 leukemia
[21] = tested on: KM12 colon
[22] = tested on: LOX IMVI melanoma
[23] = tested on: M14 melanoma
[24] = tested on: MALME-3M melanoma
[25] = tested on: MCF7 breast
[26] = tested on: MDA-MB-231 breast
[27] = tested on: MDA-MB-435
[28] = tested on: MDA-MB-468 breast
[29] = tested on: MOLT-4 leukemia
[30] = tested on: NCI-H226 lung
[31] = tested on: NCI-H23 lung
[32] = tested on: NCI-H460 lung
[33] = tested on: NCI-H522 lung
[34] = tested on: NCI/ADR-RES ovarian
[35] = tested on: OVCAR-3 ovarian
[36] = tested on: OVCAR-4 ovarian
[37] = tested on: OVCAR-5 ovarian
[38] = tested on: OVCAR-8 ovarian
[39] = tested on: PC-3 prostate
[40] = tested on: RPMI-8226 leukemia
[41] = tested on: RXF 393 renal
[42] = tested on: SF-268 CNS
[43] = tested on: SF-295 CNS
[44] = tested on: SF-539 CNS
[45] = tested on: SK-MEL-2 melanoma
[46] = tested on: SK-MEL-28 melanoma
[47] = tested on: SK-MEL-5 melanoma
[48] = tested on: SK-OV-3 ovarian
[49] = tested on: SN12C renal
[50] = tested on: SNB-19 CNS
[51] = tested on: SNB-75 CNS
[52] = tested on: SR leukemia
[53] = tested on: SW-620 colon
[54] = tested on: T-47D breast
[55] = tested on: TK-10 renal
[56] = tested on: U251 CNS
[57] = tested on: UACC-257 melanoma
[58] = tested on: UACC-62 melanoma
[59] = tested on: UO-31 renal

SMILES: CC1(C)CC[C@]2(C(=O)O)CC[C@]3(C)C(=CCC4[C@@]5(C)C[C@@H](O)[C@@H]6OC(c7ccccc7Br)OC[C@@]6(C)C5CC[C@]43C)C2C1 (stereo partly drawn)
- GI50 [1]: 3.61 µM
- TGI [1]: 15.3 µM
- GI50 [2]: 3.28 µM
- TGI [2]: 12.6 µM
- GI50 [3]: 2.11 µM
- TGI [3]: 50.1 µM
- GI50 [4]: 2.53 µM
- TGI [4]: 18.7 µM
- GI50 [5]: 3.11 µM
- TGI [5]: 13.1 µM
- GI50 [6]: 3.16 µM
- TGI [6]: > 100 µM
- GI50 [7]: 3.26 µM
- TGI [7]: 35.4 µM
- GI50 [8]: 1.99 µM
- TGI [8]: 4.89 µM
- GI50 [9]: 3.71 µM
- TGI [9]: > 100 µM
- GI50 [10]: 2.68 µM
- TGI [10]: 36.5 µM
- GI50 [11]: 3.63 µM
- TGI [11]: 20.8 µM
- GI50 [12]: 2.65 µM
- TGI [12]: 11.1 µM
- GI50 [13]: 2.21 µM
- TGI [13]: 12.9 µM
- GI50 [14]: 2.57 µM
- TGI [14]: 9.75 µM
- GI50 [15]: 3.9 µM
- TGI [15]: 22.4 µM
- GI50 [16]: 4.72 µM
- TGI [16]: 37.1 µM
- GI50 [17]: 2.82 µM
- TGI [17]: 14.9 µM
- GI50 [18]: 3.42 µM
- TGI [18]: 16.7 µM
- GI50 [19]: 4.53 µM
- TGI [19]: 30.1 µM
- GI50 [20]: 2.68 µM
- TGI [20]: > 100 µM
- GI50 [21]: 3.91 µM
- TGI [21]: 26.2 µM
- GI50 [22]: 3.49 µM
- TGI [22]: 13.9 µM
- GI50 [23]: 3.88 µM
- TGI [23]: 17.7 µM
- GI50 [24]: 3.78 µM
- TGI [24]: 19.3 µM
- GI50 [25]: 3.29 µM
- TGI [25]: > 100 µM
- GI50 [26]: 4.01 µM
- TGI [26]: 21.9 µM
- GI50 [27]: 3.95 µM
- TGI [27]: 23.5 µM
- GI50 [28]: 2.83 µM
- TGI [28]: 20.7 µM
- GI50 [29]: 2.67 µM
- TGI [29]: 23.4 µM
- GI50 [30]: 3.52 µM
- TGI [30]: 34.9 µM
- GI50 [31]: 3.72 µM
- TGI [31]: 43.7 µM
- GI50 [32]: 2.51 µM
- TGI [32]: 9.77 µM
- GI50 [33]: 3.45 µM
- TGI [33]: 78.4 µM
- GI50 [34]: 3.17 µM
- TGI [34]: > 100 µM
- GI50 [35]: 2.99 µM
- TGI [35]: 12.7 µM
- GI50 [36]: 3.61 µM
- TGI [36]: > 100 µM
- GI50 [37]: 4.08 µM
- TGI [37]: 25 µM
- GI50 [38]: 3.48 µM
- TGI [38]: > 100 µM
- GI50 [39]: 3.99 µM
- TGI [39]: > 100 µM
- GI50 [40]: 2.66 µM
- TGI [40]: 71.8 µM
- GI50 [41]: 4.37 µM
- TGI [41]: 8.95 µM
- GI50 [42]: 3.45 µM
- TGI [42]: > 100 µM
- GI50 [43]: 2.79 µM
- TGI [43]: 18.8 µM
- GI50 [44]: 3.59 µM
- TGI [44]: 12.8 µM
- GI50 [45]: 4.03 µM
- TGI [45]: 20.7 µM
- GI50 [46]: 4.69 µM
- TGI [46]: 37.2 µM
- GI50 [47]: 3.6 µM
- TGI [47]: 13.9 µM
- GI50 [48]: 3.8 µM
- TGI [48]: 44.1 µM
- GI50 [49]: 3.14 µM
- TGI [49]: 17.6 µM
- GI50 [50]: 3.82 µM
- TGI [50]: > 100 µM
- GI50 [51]: 2.44 µM
- TGI [51]: > 100 µM
- GI50 [52]: 4.15 µM
- TGI [52]: > 100 µM
- GI50 [53]: 3.43 µM
- TGI [53]: 30.9 µM
- GI50 [54]: 3.46 µM
- TGI [54]: > 100 µM
- GI50 [55]: 4.55 µM
- TGI [55]: > 100 µM
- GI50 [56]: 3.08 µM
- TGI [56]: 14.3 µM
- GI50 [57]: 4.12 µM
- TGI [57]: 30.9 µM
- GI50 [58]: 4.8 µM
- TGI [58]: 24.8 µM
- GI50 [59]: 2.68 µM
- TGI [59]: 12.4 µM
